From patent publication US10179771B2 (GALAPAGOS NV, priority 2014, dated 2019)

These compounds were tested against T1, Recombinant human JAK2 catalytic domain (Homo sapiens, UniProt O60674) (assay: JAK2 inhibition assay (polyGT substrate / Ulight-JAK1 peptide assay)). Settings: Comparative Compounds (Table VIII).
T1 construct: Recombinant human JAK2 catalytic domain (amino acids 808-1132; catalog number PV4210); GST; purchased Invitrogen PV4210
Assay type: biochemical
Description: Recombinant human JAK2 catalytic domain (amino acids 808-1132; catalog number PV4210) was purchased from Invitrogen. 0.025 mU of JAK2 is incubated with […] polyGT substrate (Sigma catalog number P0275) in kinase reaction buffer (5 mM MOPS pH 7.5, 9 mM MgAc, 0.3 mM EDTA, 0.06% Brij and 0.6 mM DTT, 1 μM non-radioactive ATP, 0.25 μCi ^33P-gamma-ATP (GE Healthcare, catalog number AH9968) final concentrations) with or without 5 μL containing test compound or vehicle (DMSO, 1% final concentration), in a total volume of 25 μL, in a polypropylene 96-well plate (Greiner, V-bottom). After 90 min at 30° C., reactions are stopped by adding of 25 μL/well of 150 mM phosphoric acid. All of the terminated kinase reaction is transferred to prewashed (75 mM phosphoric acid) 96 well filter plates (Perkin Elmer catalog number 6005177) using a cell harvester (Perkin Elmer). Plates are washed 6 times with 300 μL per well of a 75 mM phosphoric acid solution and the bottom of the plates is sealed. 40 μL/well of Microscint-20 is added, the top of the plates is sealed and readout is performed using the Topcount (Perkin Elmer). Kinase activity is calculated by subtracting counts per min (cpm) obtained in the presence of a positive control inhibitor (10 μM staurosporine) from cpm obtained in the presence of vehicle. The ability of a test compound to inhibit this activity is determined as:
[formula] • RFU test compound=RFU determined for sample with test compound present • RFU control=RFU determined for sample with positive control inhibitor • RFU vehicle=RFU determined in the presence of vehicle
Dose dilution series are prepared for the compounds enabling the testing of dose-response effects in the JAK2 assay and the calculation of the IC50 for each compound. Each compound is routinely tested at concentration of 20 μM followed by a 1/3 serial dilution, 8 points (20 μM-6.67 μM-2.22 μM-740 nM-247 nM-82 nM-27 nM-9 nM) in a final concentration of 1% DMSO. When potency of compound series increased, more dilutions are prepared and/or the top concentration is lowered (e.g. 5 μM, 1 μM).
Recombinant human JAK2 (catalytic domain, amino acids 866-1154; catalog number PV4210) was purchased from Invitrogen. 0.0125 mU of JAK2 was incubated with 25 nM Ulight-JAK1 (tyr1023) peptide (Perkin Elmer catalog number TRF0121) in kinase reaction buffer (25 mM HEPES pH7.0, 0.01% Triton X-100, 7.5 mM MgCl2, 2 mM DTT, 7.5 μM ATP) with or without 4 μL containing test compound or vehicle (DMSO, 1% final concentration), in a total volume of 20 μL, in a white 384 Opti plate (Perkin Elmer, catalog number 6007290). After 60 min at room temperature, reactions were stopped by adding 20 μL/well of detection mixture (1× detection buffer (Perkin Elmer, catalog number CR97-100C), 0.5 nM Europium-anti-phosphotyrosine (PT66) (Perkin Elmer, catalog number AD0068), 10 mM EDTA). Readout is performed using the Envision with excitation at 320 nm and measuring emission at 615 nm (Perkin Elmer). Kinase activity was calculated by subtracting relative fluorescence units (RFU) obtained in the presence of a positive control inhibitor (10 μM staurosporine) from RFU obtained in the presence of vehicle. The ability of a test compound to inhibit this activity was determined as: Percentage inhibition=((RFU determined for sample with test compound present−RFU determined for sample with positive control inhibitor) divided by (RFU determined in the presence of vehicle−RFU determined for sample with positive control inhibitor))*100.
Dose dilution series are prepared for compound enabling the testing of dose-response effects in the JAK2 assay and the calculation of the IC50 for the compound. Each compound is routinely tested at concentration of 20 μM followed by a 1/5 serial dilution, 10 points in a final concentration of 1% DMSO. When potency of compound series increases, more dilutions are prepared and/or the top concentration are lowered (e.g. 5 μM, 1 μM). […]

T1 sequence (O60674 808-1132): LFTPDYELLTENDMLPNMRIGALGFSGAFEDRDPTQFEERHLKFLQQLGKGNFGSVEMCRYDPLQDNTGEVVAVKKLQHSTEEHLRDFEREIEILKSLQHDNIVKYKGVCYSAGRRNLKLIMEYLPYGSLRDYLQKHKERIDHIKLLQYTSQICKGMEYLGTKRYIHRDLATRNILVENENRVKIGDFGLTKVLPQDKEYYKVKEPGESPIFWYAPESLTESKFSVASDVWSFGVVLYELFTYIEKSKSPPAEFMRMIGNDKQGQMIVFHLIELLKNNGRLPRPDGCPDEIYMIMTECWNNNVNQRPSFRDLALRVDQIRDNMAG

IC50 | Structure (SMILES)
> 500 nM | CN(c1cc2c(cn1)ncn2C)c1ccc(C#N)cc1F [D, reference compound]

Same assay, conditions: Illustrative Compounds of the invention (Table VII)

IC50 | Structure (SMILES)
0.1 to 50 nM | CCc1cc(C(N)=O)ncc1N(C)c1cc(NC(=O)[C@H]2C[C@H]2F)c2ncn(C)c2c1 [Cpd 25, 4-ethyl-5-((4-((1R,2R)-2-fluorocyclopropanecarboxamido)-1-methyl-1H-benzo[d]imidazol-6-yl)(methyl)amino)picolinamide]
50 to 100 nM | Cc1cc(S(C)(=O)=O)ccc1N(C)c1cc(NC(=O)[C@H]2C[C@H]2F)c2ncn(C)c2c1 [Cpd 26, (1R,2R)-N-[6-(N,2-dimethyl-4-methylsulfonyl-anilino)-1-methyl-benzimidazol-4-yl]-2-fluoro-cyclopropanecarboxamide]
100 to 500 nM | CCS(=O)(=O)c1ccc(N(C)c2cc(NC(=O)[C@H]3C[C@H]3F)c3ncn(C)c3c2)c(C)c1 [Cpd 27, (1R,2R)-N-[6-(4-ethylsulfonyl-N,2-dimethyl-anilino)-1-methyl-benzimidazol-4-yl]-2-fluoro-cyclopropanecarboxamide]
> 500 nM | Cc1cc(C#N)ncc1Oc1cc(N)c2ncn(C)c2c1 [Cpd 28, 5-(7-amino-3-methyl-benzimidazol-5-yl)oxy-4-methyl-pyridine-2-carbonitrile]
100 to 500 nM | CCc1cc(S(C)(=O)=O)ncc1Oc1cc(NC(=O)C2CC2)c2ncn(C)c2c1 [Cpd 29, N-[6-[(4-ethyl-6-methylsulfonyl-3-pyridyl)oxy]-1-methyl-benzimidazol-4-yl]cyclopropanecarboxamide]
50 to 100 nM | Cc1cc(C(N)=O)ncc1Oc1cc(NC(=O)[C@H]2C[C@H]2F)c2ncn(C)c2c1 [Cpd 32, 5-[7-[[(1R,2R)-2-fluorocyclopropanecarbonyl]amino]-3-methyl-benzimidazol-5-yl]oxy-4-methyl-pyridine-2-carboxamide]
> 500 nM | CNc1cc(Oc2cnc(C#N)cc2C)cc2c1ncn2C [Cpd 34, 4-methyl-5-[3-methyl-7-(methylamino)benzimidazol-5-yl]oxy-pyridine-2-carbonitrile]
> 500 nM | Cc1cc(C#N)ncc1Oc1cc(N(C)C)c2ncn(C)c2c1 [Cpd 35, 5-[7-(dimethylamino)-3-methyl-benzimidazol-5-yl]oxy-4-methyl-pyridine-2-carbonitrile]
> 500 nM | Cc1cc(C#N)ncc1Oc1cc(NC(=O)N2CC(O)C2)c2ncn(C)c2c1 [Cpd 36, N-[6-[(6-cyano-4-methyl-3-pyridyl)oxy]-1-methyl-benzimidazol-4-yl]-3-hydroxy-azetidine-1-carboxamide]
> 500 nM | Cc1cc(C#N)ncc1Oc1cc(NC(=O)N2CCOCC2)c2ncn(C)c2c1 [Cpd 37, N-[6-[(6-cyano-4-methyl-3-pyridyl)oxy]-1-methyl-benzimidazol-4-yl]morpholine-4-carboxamide]
100 to 500 nM | Cc1cc(C#N)ncc1Oc1cc(NC(=O)NC(C)C)c2ncn(C)c2c1 [Cpd 38, 1-[6-[(6-cyano-4-methyl-3-pyridyl)oxy]-1-methyl-benzimidazol-4-yl]-3-isopropyl-urea]
